Results reported in patent US9993494B2, “Compositions and methods for treating fibrotic disease” (eFFECTOR Therapeutics, Inc., priority 2014, dated 2018).

Test system: normal human lung fibroblasts
Assay: Ribosomal profiling: translational efficiency in TGFβ-treated fibroblasts
Type: cell-based
Conditions: TGFβ-treated fibroblasts
Summary of the method: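 Genome-wide RPF and total RNA libraries (ARTseq, RNA-Seq) were made from lysates of cycloheximide-treated, PBS-washed cells. After trimming and human-genome mapping, per-gene coding-region counts were compared between RPF and RNA for translational efficiency. Genes scoring low in either fraction were dropped.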

CC(C=CC(=O)NO)=CC(C)C(=O)c1ccc(N(C)C)cc1 (stereo not drawn) [TSA, 7-[4-(dimethylamino)phenyl]-N-hydroxy-4,6-dimethyl-7-oxohepta-2,4-dienamide]
renormalizing the translational profile of DNASE1L1 (ENSG00000013563): − (− = <0.9)
renormalizing the translational profile of KITLG (ENSG00000049130): + (+ = 0.9 to 1.5)
renormalizing the translational profile of ADAMTS6 (ENSG00000049192): − (− = <0.9)
renormalizing the translational profile of LETMD1 (ENSG00000050426): − (− = <0.9)
renormalizing the translational profile of PLEKHA5 (ENSG00000052126): − (− = <0.9)
renormalizing the translational profile of EIF4B (ENSG00000063046): + (+ = 0.9 to 1.5)
renormalizing the translational profile of RPL18 (ENSG00000063177): − (− = <0.9)
renormalizing the translational profile of HIPK2 (ENSG00000064393): − (− = <0.9)
renormalizing the translational profile of ASPM (ENSG00000066279): + (+ = 0.9 to 1.5)
renormalizing the translational profile of RASSF1 (ENSG00000068028): − (− = <0.9)
renormalizing the translational profile of PABPC1 (ENSG00000070756): − (− = <0.9)
renormalizing the translational profile of RPL31 (ENSG00000071082): − (− = <0.9)
renormalizing the translational profile of PLD1 (ENSG00000075651): − (− = <0.9)
renormalizing the translational profile of EDN1 (ENSG00000078401): − (− = <0.9)
renormalizing the translational profile of AURKA (ENSG00000087586): ++ (++ = 1.5 to 2.0)
renormalizing the translational profile of EPB41L1 (ENSG00000088367): + (+ = 0.9 to 1.5)
renormalizing the translational profile of RPL6 (ENSG00000089009): − (− = <0.9)
renormalizing the translational profile of P2RX7 (ENSG00000089041): ++ (++ = 1.5 to 2.0)
renormalizing the translational profile of KDM2B (ENSG00000089094): − (− = <0.9)
renormalizing the translational profile of RPLP0 (ENSG00000089157): − (− = <0.9)
renormalizing the translational profile of IGBP1 (ENSG00000089289): − (− = <0.9)
renormalizing the translational profile of IRAK3 (ENSG00000090376): + (+ = 0.9 to 1.5)
renormalizing the translational profile of PABPC4 (ENSG00000090621): − (− = <0.9)
renormalizing the translational profile of FMO2 (ENSG00000094963): + (+ = 0.9 to 1.5)
renormalizing the translational profile of ACOT7 (ENSG00000097021): − (− = <0.9)
renormalizing the translational profile of ATP5D (ENSG00000099624): − (− = <0.9)
renormalizing the translational profile of LGALS1 (ENSG00000100097): − (− = <0.9)
renormalizing the translational profile of EIF3L (ENSG00000100129): − (− = <0.9)
renormalizing the translational profile of RPL3 (ENSG00000100316): − (− = <0.9)
renormalizing the translational profile of CEP192 (ENSG00000101639): − (− = <0.9)
renormalizing the translational profile of AMMECR1 (ENSG00000101935): − (− = <0.9)
renormalizing the translational profile of PLP2 (ENSG00000102007): − (− = <0.9)
renormalizing the translational profile of EIF3E (ENSG00000104408): − (− = <0.9)
renormalizing the translational profile of EEF1D (ENSG00000104529): − (− = <0.9)
renormalizing the translational profile of C19orf53 (ENSG00000104979): − (− = <0.9)
renormalizing the translational profile of GLTSCR2 (ENSG00000105373): + (+ = 0.9 to 1.5)
renormalizing the translational profile of RAB3D (ENSG00000105514): ++ (++ = 1.5 to 2.0)
renormalizing the translational profile of RPL18A (ENSG00000105640): − (− = <0.9)
renormalizing the translational profile of COMP (ENSG00000105664): − (− = <0.9)
renormalizing the translational profile of GLCCI1 (ENSG00000106415): + (+ = 0.9 to 1.5)
renormalizing the translational profile of CORO2A (ENSG00000106789): − (− = <0.9)
renormalizing the translational profile of GDF10 (ENSG00000107623): + (+ = 0.9 to 1.5)
renormalizing the translational profile of RPL28 (ENSG00000108107): − (− = <0.9)
renormalizing the translational profile of RPL19 (ENSG00000108298): − (− = <0.9)
renormalizing the translational profile of RASD1 (ENSG00000108551): − (− = <0.9)
renormalizing the translational profile of NAT9 (ENSG00000109065): − (− = <0.9)
renormalizing the translational profile of RPL34 (ENSG00000109475): − (− = <0.9)
renormalizing the translational profile of CRYAB (ENSG00000109846): − (− = <0.9)
renormalizing the translational profile of GAPDH (ENSG00000111640): − (− = <0.9)
renormalizing the translational profile of C12orf57 (ENSG00000111678): + (+ = 0.9 to 1.5)
renormalizing the translational profile of MDFI (ENSG00000112559): − (− = <0.9)
renormalizing the translational profile of HBEGF (ENSG00000113070): − (− = <0.9)
renormalizing the translational profile of RPL24 (ENSG00000114391): − (− = <0.9)
renormalizing the translational profile of EEF1B2 (ENSG00000114942): − (− = <0.9)
renormalizing the translational profile of IFIH1 (ENSG00000115267): − (− = <0.9)
renormalizing the translational profile of DPH5 (ENSG00000117543): − (− = <0.9)
renormalizing the translational profile of PPL (ENSG00000118898): − (− = <0.9)
renormalizing the translational profile of PLEKHG1 (ENSG00000120278): − (− = <0.9)
renormalizing the translational profile of LIAS (ENSG00000121897): − (− = <0.9)
renormalizing the translational profile of GPSM2 (ENSG00000121957): ++ (++ = 1.5 to 2.0)
renormalizing the translational profile of RPL21 (ENSG00000122026): − (− = <0.9)
renormalizing the translational profile of RPL5 (ENSG00000122406): − (− = <0.9)
renormalizing the translational profile of INHBA (ENSG00000122641): − (− = <0.9)
renormalizing the translational profile of CIT (ENSG00000122966): +++ (+++ = >2.0)
renormalizing the translational profile of RPL23 (ENSG00000125691): − (− = <0.9)
renormalizing the translational profile of LAMP5 (ENSG00000125869): − (− = <0.9)
